{
  "source": "PubChem BioAssay AID1259407",
  "about": "(Chemical Carcinogenesis Research Information System (CCRIS), 2018)",
  "system": "CCRIS mutagenicity, Ames/micronucleus/aberration tests",
  "test": "CCRIS mutagenicity studies",
  "key": {"[1]": {"conditions": "Test System: AMES SALMONELLA TYPHIMURIUM, Strain/Indicator: TA98, Metabolic Activation: NONE, Method: STANDARD PLATE"}, "[2]": {"conditions": "Test System: AMES SALMONELLA TYPHIMURIUM, Strain/Indicator: TA100, Metabolic Activation: NONE, Method: STANDARD PLATE"}},
  "note": "Calls of active or inactive are those of the source. No rule for the calls is given here.",
  "data": [
    {"smiles": "Brc1ccc(-c2ccccc2)cc1", "values": [
      {"measurement": "mutagenic call", "setting": "Test System: AMES SALMONELLA TYPHIMURIUM, Strain/Indicator: TA98, Metabolic Activation: HAMSTER, LIVER, S-9, AROCLOR 1254, Method: PREINCUBATION", "value": "inactive; negative"},
      {"measurement": "mutagenic call", "setting": "Test System: AMES SALMONELLA TYPHIMURIUM, Strain/Indicator: TA98, Metabolic Activation: NONE, Method: PREINCUBATION", "value": "inactive; negative"},
      {"measurement": "mutagenic call", "setting": "Test System: AMES SALMONELLA TYPHIMURIUM, Strain/Indicator: TA98, Metabolic Activation: RAT, LIVER, S-9, AROCLOR 1254, Method: PREINCUBATION", "value": "inactive; negative"},
      {"measurement": "mutagenic call", "setting": "Test System: AMES SALMONELLA TYPHIMURIUM, Strain/Indicator: TA100, Metabolic Activation: HAMSTER, LIVER, S-9, AROCLOR 1254, Method: PREINCUBATION", "value": "inactive; negative"},
      {"measurement": "mutagenic call", "setting": "Test System: AMES SALMONELLA TYPHIMURIUM, Strain/Indicator: TA100, Metabolic Activation: NONE, Method: PREINCUBATION", "value": "inactive; negative"},
      {"measurement": "mutagenic call", "setting": "Test System: AMES SALMONELLA TYPHIMURIUM, Strain/Indicator: TA100, Metabolic Activation: RAT, LIVER, S-9, AROCLOR 1254, Method: PREINCUBATION", "value": "inactive; negative"},
      {"measurement": "mutagenic call", "setting": "Test System: AMES SALMONELLA TYPHIMURIUM, Strain/Indicator: TA1535, Metabolic Activation: HAMSTER, LIVER, S-9, AROCLOR 1254, Method: PREINCUBATION", "value": "inactive; negative"},
      {"measurement": "mutagenic call", "setting": "Test System: AMES SALMONELLA TYPHIMURIUM, Strain/Indicator: TA1535, Metabolic Activation: NONE, Method: PREINCUBATION", "value": "inactive; negative"},
      {"measurement": "mutagenic call", "setting": "Test System: AMES SALMONELLA TYPHIMURIUM, Strain/Indicator: TA1535, Metabolic Activation: RAT, LIVER, S-9, AROCLOR 1254, Method: PREINCUBATION", "value": "inactive; negative"},
      {"measurement": "mutagenic call", "setting": "Test System: AMES SALMONELLA TYPHIMURIUM, Strain/Indicator: TA1537, Metabolic Activation: HAMSTER, LIVER, S-9, AROCLOR 1254, Method: PREINCUBATION", "value": "inactive; negative"},
      {"measurement": "mutagenic call", "setting": "Test System: AMES SALMONELLA TYPHIMURIUM, Strain/Indicator: TA1537, Metabolic Activation: NONE, Method: PREINCUBATION", "value": "inactive; negative"},
      {"measurement": "mutagenic call", "setting": "Test System: AMES SALMONELLA TYPHIMURIUM, Strain/Indicator: TA1537, Metabolic Activation: RAT, LIVER, S-9, AROCLOR 1254, Method: PREINCUBATION", "value": "inactive; negative"}
    ]},
    {"smiles": "Cc1cc2c(c3ccc4c(O)c(O)ccc4c13)CCC2=O", "values": [
      {"measurement": "mutagenic call", "setting": "Test System: AMES SALMONELLA TYPHIMURIUM, Strain/Indicator: TA100, Metabolic Activation: RAT, LIVER, MICROSOMES, 15,16-DIHYDRO-11-METHYL-17(H)-CYCLOPENTA[A] PHENANTHREN-17-ONE, Method: STANDARD PLATE", "value": "inactive; negative"},
      {"measurement": "mutagenic call", "setting": "Test System: AMES SALMONELLA TYPHIMURIUM, Strain/Indicator: TA100, Metabolic Activation: RAT, LIVER, MICROSOMES, BENZO[A]PYRENE, Method: STANDARD PLATE", "value": "active; positive"},
      {"measurement": "mutagenic call", "setting": "Test System: AMES SALMONELLA TYPHIMURIUM, Strain/Indicator: TA100, Metabolic Activation: RAT, LIVER, MICROSOMES, CLOFIBRATE, Method: STANDARD PLATE", "value": "inactive; negative"},
      {"measurement": "mutagenic call", "setting": "Test System: AMES SALMONELLA TYPHIMURIUM, Strain/Indicator: TA100, Metabolic Activation: RAT, LIVER, MICROSOMES, DEXAMETHASONE, Method: STANDARD PLATE", "value": "inactive; negative"},
      {"measurement": "mutagenic call", "setting": "Test System: AMES SALMONELLA TYPHIMURIUM, Strain/Indicator: TA100, Metabolic Activation: RAT, LIVER, MICROSOMES, ISONIAZID, Method: STANDARD PLATE", "value": "inactive; negative"},
      {"measurement": "mutagenic call", "setting": "Test System: AMES SALMONELLA TYPHIMURIUM, Strain/Indicator: TA100, Metabolic Activation: RAT, LIVER, MICROSOMES, PHENOBARBITONE, Method: STANDARD PLATE", "value": "inactive; negative"},
      {"measurement": "mutagenic call", "setting": "Test System: AMES SALMONELLA TYPHIMURIUM, Strain/Indicator: TA100, Metabolic Activation: RAT, LIVER, MICROSOMES, Method: STANDARD PLATE", "value": "inactive; negative"}
    ]},
    {"smiles": "CCCCN(COC(C)=O)N=O", "values": [
      {"measurement": "mutagenic call", "setting": "Test System: UDS RAT UROTHELIAL CELLS, Strain/Indicator: THY INCORP, Metabolic Activation: NONE", "value": "active; positive"}
    ]},
    {"smiles": "CCc1cc(O)cc2c3c([nH]c12)C(CC)(CC(=O)O)OCC3", "note": "(stereo not drawn)", "values": [
      {"measurement": "mutagenic call", "setting": "[1]", "value": "active; positive"},
      {"measurement": "mutagenic call", "setting": "Test System: AMES SALMONELLA TYPHIMURIUM, Strain/Indicator: TA98, Metabolic Activation: RAT, LIVER, S-9 (10 OR 50 µL/PLATE), Method: STANDARD PLATE", "value": "inactive; negative"},
      {"measurement": "mutagenic call", "setting": "[2]", "value": "inactive; negative"},
      {"measurement": "mutagenic call", "setting": "Test System: AMES SALMONELLA TYPHIMURIUM, Strain/Indicator: TA100, Metabolic Activation: RAT, LIVER, S-9 (10 OR 50 µL/PLATE), Method: STANDARD PLATE", "value": "inactive; negative"},
      {"measurement": "mutagenic call", "setting": "Test System: AMES SALMONELLA TYPHIMURIUM, Strain/Indicator: TA1535, Metabolic Activation: NONE, Method: STANDARD PLATE", "value": "inactive; negative"},
      {"measurement": "mutagenic call", "setting": "Test System: AMES SALMONELLA TYPHIMURIUM, Strain/Indicator: TA1535, Metabolic Activation: RAT, LIVER, S-9 (10 OR 50 µL/PLATE), Method: STANDARD PLATE", "value": "inactive; negative"},
      {"measurement": "mutagenic call", "setting": "Test System: AMES SALMONELLA TYPHIMURIUM, Strain/Indicator: TA1537, Metabolic Activation: NONE, Method: STANDARD PLATE", "value": "inactive; negative"},
      {"measurement": "mutagenic call", "setting": "Test System: AMES SALMONELLA TYPHIMURIUM, Strain/Indicator: TA1537, Metabolic Activation: RAT, LIVER, S-9 (10 OR 50 µL/PLATE), Method: STANDARD PLATE", "value": "inactive; negative"},
      {"measurement": "mutagenic call", "setting": "Test System: E. COLI, Strain/Indicator: WP2 UVRA, Metabolic Activation: NONE, Method: STANDARD PLATE", "value": "inactive; negative"},
      {"measurement": "mutagenic call", "setting": "Test System: E. COLI, Strain/Indicator: WP2 UVRA, Metabolic Activation: RAT, LIVER, S-9 (10 OR 50 µL/PLATE), Method: STANDARD PLATE", "value": "inactive; negative"}
    ]},
    {"smiles": "CC1(C)CC[C@]2(C(=O)O)CC[C@]3(C)C(=CC[C@@H]4[C@@]5(C)C[C@H](O)[C@H](O)[C@@](C)(C(=O)O)[C@@H]5CC[C@]43C)[C@@H]2C1", "values": [
      {"measurement": "mutagenic call", "setting": "Test System: AMES SALMONELLA TYPHIMURIUM, Strain/Indicator: TA97, Metabolic Activation: NONE, Method: STANDARD PLATE", "value": "inactive; negative"},
      {"measurement": "mutagenic call", "setting": "Test System: AMES SALMONELLA TYPHIMURIUM, Strain/Indicator: TA97, Metabolic Activation: RAT, LIVER, S-9, AROCLOR 1254, Method: STANDARD PLATE", "value": "inactive; negative"},
      {"measurement": "mutagenic call", "setting": "[1]", "value": "inactive; negative"},
      {"measurement": "mutagenic call", "setting": "Test System: AMES SALMONELLA TYPHIMURIUM, Strain/Indicator: TA98, Metabolic Activation: RAT, LIVER, S-9, AROCLOR 1254, Method: STANDARD PLATE", "value": "inactive; negative"},
      {"measurement": "mutagenic call", "setting": "[2]", "value": "inactive; negative"},
      {"measurement": "mutagenic call", "setting": "Test System: AMES SALMONELLA TYPHIMURIUM, Strain/Indicator: TA100, Metabolic Activation: RAT, LIVER, S-9, AROCLOR 1254, Method: STANDARD PLATE", "value": "inactive; negative"},
      {"measurement": "mutagenic call", "setting": "Test System: AMES SALMONELLA TYPHIMURIUM, Strain/Indicator: TA102, Metabolic Activation: NONE, Method: STANDARD PLATE", "value": "inactive; negative"},
      {"measurement": "mutagenic call", "setting": "Test System: AMES SALMONELLA TYPHIMURIUM, Strain/Indicator: TA102, Metabolic Activation: RAT, LIVER, S-9, AROCLOR 1254, Method: STANDARD PLATE", "value": "inactive; negative"}
    ]}
  ]
}
